System: primary mouse hepatocytes
Test: Gene expression in primary mouse hepatocytes, GTX vs non-GTX (four-gene classifier, 24 h)
Description: Hepatocyte cells were incubated and exposed to a compound for 24 h before being harvested for RNA isolation.
The results of the gene expression analysis may then be fed into a statistical software package such as R, Splus, or Microsoft Excel. […] If none or only one of these criteria were met, no point was scored.
For each of the four genes mentioned in the table (1700007K13RIK, GAS2L3, SPC25, DDIT4L), a statistical comparison was made between the normalized expression data for these genes. […] If none or only one of these criteria were met, no point was scored.
For each compound, the sum of the scores for four genes is taken. If this score is 0, a compound can be believed not to be genotoxic. If this score is 1, 2, 3 or 4, a compound is genotoxic.
If none or only one of these criteria were met, no point was scored.

[1] = 24 h exposure, average of four replicates
[2] = log 2 ratio, 24 h exposure, concentration per Table 4

With `Clc1cc2c(cc1Cl)Oc1cc(Cl)c(Cl)cc1O2` [TCDD, 2,3,7,8-Tetrachlorodibenzodioxin] the “score 1700007K13RIK” value [1] was 0, the “score DDIT4L” value [1] was 0 and the “score GAS2L3” value [1] was 0. The “score SPC25” value [1] was 0, the “Ratios of gene expression treated/untreated 1700007K13RIK” value [2] was 0.0752 and the “Ratios of gene expression treated/untreated DDIT4L” value [2] was 0.2646. For the same compound, the “Ratios of gene expression treated/untreated GAS2L3” value [2] was 0.22, the “Ratios of gene expression treated/untreated SPC25” value [2] was 0.01802 and the Total score (sum of scores for four genes, 0 = not genotoxic, 1, 2, 3 or 4 = genotoxic) was 0.
